# Legend:
# [1] = tested on: HCT-116; assay: Cytotoxicity in human HCT116 cells assessed as reduction in cell viability incubated for 72 hrs by FMCA analysis; assay type: functional, cell-based; conditions: HCT-116, 72 h
# [2] = Inhibition of 26S proteasome (unknown origin) incubated for 2 hrs by proteasome Ub-Rho cleavage assay; design: species or system Homo sapiens
# [3] = biological target: T1, STAM-binding protein (Homo sapiens, UniProt O95630); assay: Inhibition of human STAMBP expressed in Sf21 cells pre-incubated for 20 mins before Ubiquitinated NALP7 substrate addition and measured after 1 hr by immunoblotting analysis
# T1 sequence (O95630 whole entry): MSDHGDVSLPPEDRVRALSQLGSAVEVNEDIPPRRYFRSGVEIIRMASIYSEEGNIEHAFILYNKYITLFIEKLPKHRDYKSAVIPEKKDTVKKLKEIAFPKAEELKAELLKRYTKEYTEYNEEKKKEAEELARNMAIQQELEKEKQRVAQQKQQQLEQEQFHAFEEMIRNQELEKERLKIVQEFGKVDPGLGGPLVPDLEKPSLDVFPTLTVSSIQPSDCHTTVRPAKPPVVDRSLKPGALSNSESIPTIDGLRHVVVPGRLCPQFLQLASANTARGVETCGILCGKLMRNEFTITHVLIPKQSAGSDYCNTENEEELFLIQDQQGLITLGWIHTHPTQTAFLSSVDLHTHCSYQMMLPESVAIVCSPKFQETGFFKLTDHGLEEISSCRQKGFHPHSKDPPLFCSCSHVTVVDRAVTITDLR
# [4] = biological target: T2, Ubiquitin carboxyl-terminal hydrolase 4 (Homo sapiens, UniProt Q13107); assay: Inhibition of USP4 in human U2OS using Ub-TAMRA substrate by Ub-Rhodamine fluorescent intensity assay; assay type: cell-based
# T2 sequence (Q13107 whole entry): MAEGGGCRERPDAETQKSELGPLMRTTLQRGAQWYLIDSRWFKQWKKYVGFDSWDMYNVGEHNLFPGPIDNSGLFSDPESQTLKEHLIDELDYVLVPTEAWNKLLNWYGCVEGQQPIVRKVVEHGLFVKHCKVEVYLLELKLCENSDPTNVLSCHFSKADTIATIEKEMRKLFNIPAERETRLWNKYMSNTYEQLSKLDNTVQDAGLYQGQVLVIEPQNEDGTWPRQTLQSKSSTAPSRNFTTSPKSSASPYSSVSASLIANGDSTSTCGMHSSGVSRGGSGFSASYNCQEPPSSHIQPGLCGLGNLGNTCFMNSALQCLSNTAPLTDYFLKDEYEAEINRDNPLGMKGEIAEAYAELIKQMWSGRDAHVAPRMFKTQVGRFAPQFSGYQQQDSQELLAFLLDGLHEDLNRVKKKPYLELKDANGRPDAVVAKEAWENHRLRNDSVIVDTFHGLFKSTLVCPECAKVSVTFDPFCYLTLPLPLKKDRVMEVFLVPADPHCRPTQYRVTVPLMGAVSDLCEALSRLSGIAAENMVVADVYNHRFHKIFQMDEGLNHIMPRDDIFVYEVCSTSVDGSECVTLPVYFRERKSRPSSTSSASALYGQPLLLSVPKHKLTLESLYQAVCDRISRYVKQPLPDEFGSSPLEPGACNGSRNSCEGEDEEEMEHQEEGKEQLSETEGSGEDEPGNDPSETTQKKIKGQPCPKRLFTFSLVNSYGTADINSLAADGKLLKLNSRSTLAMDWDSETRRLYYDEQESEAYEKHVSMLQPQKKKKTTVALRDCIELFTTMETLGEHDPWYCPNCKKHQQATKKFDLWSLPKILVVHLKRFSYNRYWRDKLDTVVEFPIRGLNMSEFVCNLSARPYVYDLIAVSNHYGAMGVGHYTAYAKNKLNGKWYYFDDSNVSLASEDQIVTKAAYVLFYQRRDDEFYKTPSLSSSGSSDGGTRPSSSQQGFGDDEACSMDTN
# [5] = biological target: Ubiquitin carboxyl-terminal hydrolase 7 (Homo sapiens, UniProt Q93009); assay: Inhibition of USP7 in human U2OS using Ub-TAMRA substrate by Ub-Rhodamine fluorescent intensity assay; assay type: cell-based
# Ubiquitin carboxyl-terminal hydrolase 7, sequence (Q93009 whole entry): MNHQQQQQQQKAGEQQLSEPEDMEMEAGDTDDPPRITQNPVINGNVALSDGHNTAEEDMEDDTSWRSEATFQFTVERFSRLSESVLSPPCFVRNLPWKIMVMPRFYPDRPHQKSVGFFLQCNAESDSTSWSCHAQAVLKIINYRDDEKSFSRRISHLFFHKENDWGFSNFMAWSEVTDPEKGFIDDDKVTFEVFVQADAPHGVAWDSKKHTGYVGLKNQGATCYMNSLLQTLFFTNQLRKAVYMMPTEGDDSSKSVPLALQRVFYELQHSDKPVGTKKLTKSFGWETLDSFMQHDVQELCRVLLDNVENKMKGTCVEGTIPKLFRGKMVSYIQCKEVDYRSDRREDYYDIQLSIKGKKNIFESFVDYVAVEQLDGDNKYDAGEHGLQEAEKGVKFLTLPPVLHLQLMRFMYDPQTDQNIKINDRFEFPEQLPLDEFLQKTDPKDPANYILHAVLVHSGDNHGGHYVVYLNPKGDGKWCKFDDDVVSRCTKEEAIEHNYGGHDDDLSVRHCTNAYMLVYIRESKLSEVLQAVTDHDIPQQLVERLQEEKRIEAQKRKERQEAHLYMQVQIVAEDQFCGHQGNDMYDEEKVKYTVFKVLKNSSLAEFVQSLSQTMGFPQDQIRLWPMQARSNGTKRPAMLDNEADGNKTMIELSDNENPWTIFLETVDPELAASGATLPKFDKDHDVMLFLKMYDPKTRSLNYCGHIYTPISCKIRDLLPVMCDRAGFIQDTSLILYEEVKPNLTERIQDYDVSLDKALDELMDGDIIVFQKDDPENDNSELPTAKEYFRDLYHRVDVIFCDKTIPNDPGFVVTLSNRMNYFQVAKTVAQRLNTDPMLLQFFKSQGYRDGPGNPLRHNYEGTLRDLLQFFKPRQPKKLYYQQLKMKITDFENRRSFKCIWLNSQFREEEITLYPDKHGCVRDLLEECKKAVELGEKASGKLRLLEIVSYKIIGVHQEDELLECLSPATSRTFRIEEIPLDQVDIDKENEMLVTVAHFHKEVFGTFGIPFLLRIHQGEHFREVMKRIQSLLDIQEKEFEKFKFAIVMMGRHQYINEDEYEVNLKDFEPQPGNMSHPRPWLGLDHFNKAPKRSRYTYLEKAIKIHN
structure (smiles),measurement,setting,value
C=CC(=O)N1C/C(=C\c2ccc([N+](=O)[O-])cc2)C(=O)/C(=C/c2ccc([N+](=O)[O-])cc2)C1,EC50,[1],1050 nM
same,EC50,[2],6500 nM
C=CC(=O)N1CC/C(=C\c2ccc(F)c([N+](=O)[O-])c2)C(=O)/C(=C/c2ccc(F)c([N+](=O)[O-])c2)C1,EC50,[1],580 nM
same,EC50,[2],6400 nM
O=C(CSc1nc2ccc(N3CCOCC3)cc2c(=O)n1CCc1ccccc1)NCc1ccco1,IC50,[3],330 nM
C#Cc1ccc(CNC(=O)c2cc(C(=O)CCl)cn2C)cc1,IC50,[4],50 nM
same,IC50,[5],44000 nM

# From ChEMBL document CHEMBL4354818, “Advances in Discovering Deubiquitinating Enzyme (DUB) Inhibitors” (J Med Chem, 2020)
